B1: SR21 recombinase: putative serine recombinase from Bacillus safensis strain CCMA-560, SEQ ID NO:2, expressed from plasmid P175 (protein)
chain: MELKHIVNSYNVTKIIGYLRRSRQDVEREKRTGEDTLTEQKELMNKILTGIEIPYETRTEIGSGESIEGRPVFKSCLADLRSGKFQAIAVKEITRLSRGSYSDAGEIVNLLNEKRIIIITPYKIYDPRNPVDARQIRFELFMAREEFEMTRERMNGAKFTYAAQGKWISGLAPFGYKLNKRTSRLEPSDEDKVVVKLIFDIFLNGLDGKDLSYTAIATHLSKLQFTTPRGGKRWSKDTVRKILQNEAYMGRVRYKARETTKDGKKVFRPESEHIVVDDAHEPIINKEDFEAVQEKIKNKVPLLPVVTSYEPNELAGICVCSVCGKSLQKFESEYNRKNKDGTSSYFHVKLLICKINKCTSVRYEYVEEAILEYLEQLIALENNKLKAIIEKSMEAAETNNSEKTSEQMLVQANQKQKELENKLTFIFEKFESGIYTDEMFLQRKAAIEKEVADIKKLKQELSMTFEVKEKDVNEFRVNISDVVKFYKESKSRGLKNEKLRSIFDFIVLEMTEKRRGPIPAKFNIYPVLRIPSVVN
modifications: SR21 Recombinase (WP_029708089.1) Protein Sequence

Experiments:
adenovirus infection = conditions: cited from earlier work
P600-PEAK-Rapid cells = experiment: AAV production from P600 stable pool after Ad5-CMV-SR21 infection, with 2-aminopurine, ddPCR mCherry assay; format: cell-based, human
Procedure: ddPCR quantitation was based on the method described by Lock et al. (2014) Human Gene Therapy methods 23: 115-125. Two 1 of the lysate was DNAse digested in 20 reactions containing 1× PCR buffer+20 mM Tris pH 8.5+8 units DNAse I at 37° C. for 1 hour 96-well plates in a thermocycler. 2 μl of the DNAse digested samples were diluted with 98 Virus Dilution Buffer (VDB) and 2 μl of this dilution was added to ddPCR reactions containing 1× PCR SuperMix+1× PCR Primer/Probe for the mCherry transgene (See Materials section). ddPCR droplets were formed using the Bio-Rad automated droplet maker. PCR cycling was as follows: 95° C. 10 min; 42× (94° C. 30s, 60° C. 1 min, 72° C. 15s all three at cycling time of 2° C. per s); 98° C. 10 min; 4° C. hold. FAM fluorescence was detected on the Bio-Rad droplet reader as per manufacturer's instructions. The clones that produced the highest DNAse-resistant particles as detected as FAM-fluorescence positive droplets were subjected to expansion and further screening.
Construct P600 was transfected into Peak-RAPID cells and a stable pool was generated through selection with 0.5 μg/ml puromycin essentially as described for P439 cells above. Cells were passed 1:10 for 6 weeks prior to assaying AAV production.
2.5E6 P600-PEAK-Rapid p6 cells were plated into three T25 flasks in 5 mls DMEM+10% FBS and incubated for three days at 37° C. The cells density on the day of infection was determined to be 6.6E6 viable cells in one of the flasks where cells were recovered with TrypLE and counted using Trypan blue exclusion. Media in the two remaining flasks were replaced with […] DMEM+2% FBS containing 2.6E8 Ad5-CMV-SR21 virus particles. The flasks were incubated for 24 hours at 32° C. […] One ml of DMEM+2% FBS was added to the other flask, and both flasks were incubated at 32° C. for 7 additional days. Media was recovered from the flasks, centrifuged at 3,000 rpm for 5 minutes to pellet cells and debris. 2 μl of each sample supernatant was subjected to DNAse digestion and ddPCR quantitation using the mCherry assay as described above.

[1] = system: recombinase reporter plasmid (P41) with SR21 attP and attB signals; experiment: Recombinase reporter assay (Dual Glo firefly/Renilla luciferase) in transfected HEK293 cells; format: cell-based, human
Text: A vector (P175) (SEQ ID NO:10) was constructed by Gene Synthesis (GENEWIZ, Plainfield, N.J.) to express SR21 recombinase in mammalian cells under control of the CMV promoter and followed by an SV40 polyadenylation signal. The SR21 recombinase open reading frame is the same as SEQ ID NO:3 except that the bacterial translation initiation codon “TTG” is replaced by an “ATG”, and three point-mutations were introduced to destroy restriction endonuclease recognition sites.
A recombinase reporter plasmid (P41) was also constructed by gene synthesis (GENEWIZ, Plainfield, N.J.) (SEQ ID NO:11; FIG. 4). It encodes a constitutively expressed green fluorescent protein (GFP)—self-cleaving F2A—Renilla luciferase (rLUC) fusion protein driven by the EF1α promoter. It also encodes recombinase activated—mCherry-self cleaving P2A-firefly luciferase (fLUC) reporter gene flanked by SR21 attP (SEQ ID NO:7) and attB (SEQ ID NO:9) signals in the antisense orientation relative to the CMV promoter. When SR21 recombinase recombines the attP and attB signals, the coding region is inverted into the sense orientation and the mCherry-P2A-fLUC protein is expressed (See FIG. 4).
To measure SR21 recombinase activity in human cells, 75,000 HEK293 cells were plated into each well of 96-well tissue culture plates in 100 of high-glucose DMEM+10% Fetal Bovine Serum. The recombinase reporter plasmid (P041) the SR21 Recombinase expression plasmid (P175)+[…] (to normalize DNA amounts) were complexed with Fugene-HD transfection reagent in OptiMEM medium for 15 minutes at room temperature as shown in Table 1 and transfected into triplicate wells of the plated cells. Plates were incubated at 37° C. for 48 hours.
Firefly Luciferase (fLUC) and Renilla luciferase (rLUC) was assayed sequentially in transfected wells using the Dual Glo assay kit from Promega. Medium was removed from the transfected wells of the tissue culture plate and 100 μl of a 1:1 mixture of DMEM medium (without phenol red) and the Dual Glo luciferase+fLUC substrate was added. The plate was incubated at room temperature for 10 minutes. The lysate was transferred to an opaque white 96-well plate. fLUC activity was measured using the Envision multilabel reader. Next, 50 μl per well of the Stop-and-Glo buffer+Renilla substrate was added and the plate was incubated with gentle shaking for 10 minutes. The Renilla luciferase signal was read on the same Envision reader.

[2] = system: Stop Cassette of vector P439 (attP/attB); experiment: Stop Cassette removal by SR21 Recombinase, co-transfection of P439 and P175, PCR and sequencing; format: cell-based, human; conditions: PEAK-Rapid cells, three days; PCR product sequenced; attL produced
Procedure: Media was removed, cells were washed once with D-PBS and then incubated with TrypLE for 5 minutes at 37° C. Cells were transferred to a sterile microfuge tube, pelleted by centrifugation, washed once with 1 ml D-PBS and pelleted again. Episomal plasmids were recovered by alkaline lysis using the Qiagen Spin Miniprep kit designed for isolating plasmids from bacteria.
To destroy unrecombined plasmid DNA, an aliquot of the recovered DNA was digested with enzyme Spe I-HF in 1× CutSmart Buffer at 37° C. Ihour and 80° C. 20 minutes. The recovered DNA was subjected to PCR amplification with primers P349F3 (SEQ ID NO:32) and P349R9 (SEQ ID NO:33) using NEXT Ultra II Q5 Master Mix with the following cycling conditions: 98° C. 1 min; 35× (98° C. 10s, 72° C. 10s); 5 min 72° C. A single PCR product of the predicted size was observed when subjected to electrophoresis on a 1% agarose gel. The PCR product was purified by size exclusion chromatography using a CHROMA SPIN™+TE-1000 Column. The PCR product was sequenced using the same primers used for PCR (GeneWiz).

Row | Molecule | cytopathic effect of adenovirus infection (adenovirus infection; 10 mM 2-AP treatment 1-2 hours post infection) | toxicity to cells (adenovirus infection; 10 mM 2-AP, for at least three days) | AAV GC/Cell (P600-PEAK-Rapid cells; DMEM + 2% FBS + 1.25 mM 2-AP added 24 hours post infection, 32° C., 7 additional days, media) | effect on AAV production (P600-PEAK-Rapid cells; concentrations above 1.25 mM and addition earlier than 24 hours) | increase in AAV virus production (P600-PEAK-Rapid cells; in the presence of 2-aminopurine versus without, P600 stable pool) | rLUC ([1]; 100 ng P41 reporter + 100 ng P175, 48 hours, constitutive Renilla luciferase (transfection efficiency)) | fLUC ([1]; 100 ng P41 reporter + 100 ng P175 recombinase expression plasmid, 48 hours) | Fold-Increase in fLUC Activity ([1]; reporter + recombinase expression plasmid versus reporter + deoxynucleotides) | SR21 recombinase activity in human cells ([1]; representative of three independent experiments) | removal of STOP cassette from plasmid P439 by recombining attP and attB [2]
1 | Nc1ncc2[nH]cnc2n1 [2-AP, 2-aminopurine] | blocked | nontoxic | 59,356 ± 11,026 GC/Cell | inhibitory | 2.5 fold |  |  |  |  | 
2 | B1 |  |  |  |  |  | 3.4E06 ± | 6.6E06 ± | 1535 fold | highly active | precisely removed
